Experiment [1] concerns HL60 cells. Put plainly: Detection of metabolically labelled DNA fragments in the cytoplasm of apoptotic cells (4 hours incubation). It is filed as cell-based. Particulars: for A (405 nm), metabolically labelled DNA fragments in the cytoplasm: 37° C. The method, then:
(§1) The cells to be examined (e.g. HL60 cells, ATCC CCL 240) are firstly metabolically labelled by incubation with 0.01 mmol/l bromodeoxyuridine for 18 hours at 37° C. After removing the excess bromodeoxyuridine that is not incorporated into DNA by washing with culture medium, the cells (200 μl in each case, see Table 1 for cell number) are incubated for 4 hours at 37° C. with 2 μg/ml camptothecin (Sigma, Munich) in a microtitre plate. Afterwards 20 μl 10-fold concentrated lysis buffer (PBS/50 mmol/l EDTA/2 % Tween 20) is added to each preparation for the lysis, the microtitre plate is centrifuged and 100 μl supernatant is taken from each well for the test (PBS=137 mmol/l NaCl; 2.7 mmol/l KCl; 8 mmol/l Na2 HPO4 and 1.5 mmol/l KH2 PO4).
In order to detect the metabolically labelled DNA, a further microtitre plate is coated with an antibody against DNA (5 μg/ml, Boehringer Mannheim GmbH, Ident. No. 1525760) in 100 mmol/l NaCO3 buffer pH 9.6. Subsequently the metabolically labelled DNA is bound to the wall antibody by addition of 100 μl supernatant (see above) per well and incubation for 90 minutes at room temperature. After washing with PBS, the remaining liquid is removed from the wells of the microtitre plate by for example knocking. Afterwards the bound double-stranded DNA is denatured or partially degraded by microwave treatment (5 min. 650 watts, AEG Micromat 275Z) or alternatively by addition of 100 μl (corresponding to 1 unit per well of the microtitre plate) exonuclease III (Boehringer Mannheim GmbH, Catalogue No. 779717). The preparation in which the DNA has been denatured by microwave treatment is subsequently cooled for 10 minutes at 8° C. in a refrigerator. The preparation treated with exonuclease III is subsequently washed three times with PBS.
HL60 cells (ATCC CCL 240) were firstly metabolically labelled with bromodeoxyuridine as stated in example 1. After washing out excess bromodeoxyuridine, the cells are incubated in a microtitre plate at 37° C. for 3 or 4 hours with various concentrations of camptothecin (5000 to 0 ng/ml). Subsequently the microtitre plate is centrifuged, an aliquot of the cell culture supernatant (100 μl/well) is taken for the detection of metabolically labelled DNA in the cell culture supernatant according to example 2 and the cells remaining in the microtitre plate are lysed by addition of 100 μl/well 2-fold concentrated lysis buffer (PBS/10 mmol/l EDTA/0.4% Tween 20). The detection of the metabolically labelled DNA in the lysate obtained in this way is then carried out as described in example 1.

Experiment [2] concerns HL60 cells. Description: Detection of metabolically labelled DNA fragments in apoptotic cells (3 hours incubation). It is filed as cell-based. The following applies: 200 ng/ml camptothecin, 37° C. The method, then: as §1
In order to detect the metabolically labelled DNA, a further microtitre plate is coated with an antibody against DNA (5 μg/ml, Boehringer Mannheim GmbH, Ident. No. 1525760) in 100 mmol/l NaCO3 buffer pH 9.6. Subsequently the metabolically labelled DNA is bound to the wall antibody by addition of 100 μl supernatant (see above) per well and incubation for 90 minutes at room temperature. After washing with PBS, the remaining liquid is removed from the wells of the microtitre plate by for example knocking. […]

With `CC[C@@]1(O)C(=O)OCc2c1cc1n(c2=O)Cc2cc3ccccc3nc2-1` [camptothecin], the “A (405 nm), metabolically labelled DNA fragments in the cytoplasm” value in experiment [1] (1.6 ng/ml camptothecin) is reported as 0.295; in experiment [1] (8 ng/ml camptothecin), 0.342; in experiment [1] (40 ng/ml camptothecin) it was 0.625; in experiment [1] (200 ng/ml camptothecin) it was 1.006; in experiment [1] (1000 ng/ml camptothecin), 1.457; in experiment [1] (5000 ng/ml camptothecin), 1.677. Also, the “amount of cytoplasmic, metabolically labelled DNA fragments (dose dependence)” value in experiment [1] (camptothecin 5000 to 0 ng/ml) is “correlates with the amount of camptothecin”. Also, the “A (405 nm), metabolically labelled DNA, cell culture supernatant” value in experiment [2] (cell culture supernatant (according to example 2)) is listed as 0.020. The “A (405 nm), metabolically labelled DNA, cytoplasm (lysate after detergent treatment)” value in experiment [2] (cytoplasm (lysate after detergent treatment)) turned out to be 0.770.

Values taken from US5700639A, “Method for the detection of metabolically labelled DNA” (Boehringer Mannheim GmbH, priority 1993, dated 1997).
